The nature of the data set: Solubility in xylenes. It counts as physicochemical. From the text: A major advantage of alkoxymethylated melamine triazine UV absorbers of the present invention is not only their improved solubility, but also their improved compatibility with coatings resins compared to the corresponding triazine precursors. For example 2,4-bis(2,4-dimethylphenyl)-6-[2-hydroxy-4-(2-hydroxyethoxy)phenyl]-1,3-5-triazine is only soluble in xylenes to the extent of about 0.5%. […] Therefore Compound A is much easier to dissolve in high solids coating resin formulations than 2,4-bis(2,4-dimethylphenyl)-6-[2-hydroxy-4-(2-hydroxyethoxy)phenyl]-1,3-5-triazine, and overcomes the problem of cratering and poor weatherability of the final coatings due to undissolved UV absorber particles.

For “2,4-bis(2,4-dimethylphenyl)-6-[2-hydroxy-4-(2-hydroxyethoxy)phenyl]-1,3-5-triazine [Compound a]”, the xylenes solubility entry was “about 0.5%”.
